# Source: patent US20110154529A1, “INDUCED CHROMOSOME DOUBLING IN PLANTS” (DOW AGROSCIENCES LLC, priority 2009, published 2011)
# Read-outs that look alike come from different tables or passages of the source.
# Legend:
# [1] = test system: germinated haploid maize seedlings in soil; experiment: Chromosome doubling by foliar spray treatment at V1-V3 stage; type: in vivo
# Method: Haploid maize seeds were planted in Sun Gro MetroMix® 306 planting mixture, which typically has a pH of 6.0 to 6.8 and an organic matter content of about 30 percent, in 72-well, plastic propagation flats (Dillen Products; Middlefield Ohio). When required to ensure good germination and healthy plants, a fungicide treatment and/or other chemical or physical treatment was applied. The plants were grown in a greenhouse with an approximate 15 hour photoperiod which was maintained at about 23-29° C. during the day and 22-28° C. during the night until they reached the V1-V3 growth stage. Nutrients and water were added on a regular basis and supplemental lighting was provided with overhead metal halide 1000-Watt lamps as necessary.
# A weighed amount of compound 1, determined by the rate to be tested, was dissolved in 1.2 mL of dimethyl sulfoxide (DMSO) to obtain concentrated stock solutions. […] The concentrated stock solutions obtained were diluted with 10.8 mL of an aqueous mixture containing 1.25% v/v (volume/volume) Agri-dex Crop Oil Concentrate. Compound requirements are based upon a 12 mL application volume at a rate of 187 L/ha. Formulated compounds were applied to the plant material with an overhead Mandel track sprayer equipped with a 8002E nozzle calibrated to deliver 187 L/ha over an application area of 0.503 square meters at a spray height of 18 inches (43 cm) above the average plant canopy height. Control plants were sprayed in the same manner with the solvent blank.
# The treated plants and control plants were placed in a greenhouse as described above and watered by sub-irrigation to prevent wash-off of the test compounds. Approximately 14 days after treatment, the treated plants were transplanted to individual pots containing Sun Gro MetroMix® 306. Plants that produced tassels and silk were then self-pollinated to obtain dihaploid seed.
# Table 3 illustrates the results of doubling rate after spray treatment with the chemicals of interest. […] The spray treated plant tassels and silks were synchronized well and the plants shed more pollen.
# [2] = test system: haploid germinated maize seedlings
# Excerpt: An exemplary cycloalkene, 1,2,3-Trimethoxy-4-((1S,6R)-6-nitro-cyclohex-3-enyl)-benzene, designated as compound 1 was used to determine double haploid efficiency, doubling rate by a coleoptile tip cutting, seedling soaking method. […] Data provided in Tables 1, 2 and 3 were generated using haploid seeds obtained through cross pollination of a maize line of interest with an inducer maize line.
# The resulting maize seeds were sorted based on marker gene color.
# Coleoptile tips in maize seedlings were cut and the seedlings were soaked in various chromosome doubling agents as shown in Table 1. Haploid maize seeds were germinated and the coleoptile tips were excised (1-2 mm). Seedlings that survived were transplanted and grown until tassels and silk formed. Plants that produced tassels and silk were self-pollinated. Seeds produced form the self-pollination were visually assessed for the marker to identify them as double haploid (dihaploid).
# [3] = test system: rats; experiment: Dermal toxicity on rats; type: in vivo, rat; details: rats at 200 mg/kg
# [4] = Acute mammalian toxicity LD50 (rat); details: in vivo
# [5] = test system: haploid maize seedlings; experiment: Chromosome doubling by seedling soaking, plants transplanted into the field; type: in vivo
# Method: The procedure listed in example 1 was utilized to treat maize seedlings that were subsequently transplanted into the field. Seedlings that survived the transplanting were grown to maturity. Plants that produced tassels and silk were self-pollinated. […] For the cycloalkene treatment, 25 μM and 100 μM concentrations of compound 1 was used.
# [6] = test system: rabbit; experiment: Eye irritation; type: in vivo; details: dose of about 100 mg/animal
# [7] = test system: rat; details: cited from earlier work
# [8] = seedling soak, rate 5 μM, TP = transplanted
# [9] = seedling soak, rate 25 μM, TP = transplanted
# [10] = seedling soak, rate 125 μM, TP = transplanted
# [11] = seedling soak, rate cell empty in table, colchicine at 0.06% w/v
structure (smiles),measurement,setting,value
"CC(C)OC(=O)Nc1cccc(Cl)c1 [Chlorpropham, chlorpropham]",# plants dead after treatment,"[1]; spray, rate 70 g ai/ha",0
same,# plants w/ pollen and silk,"[1]; spray, rate 70 g ai/ha",9
same,% DR (doubling rate),"[1]; spray, rate 70 g ai/ha",40.9%
same,# plants dead after treatment,"[1]; spray, rate 280 g ai/ha",1
same,# plants w/ pollen and silk,"[1]; spray, rate 280 g ai/ha",18
same,% DR (doubling rate),"[1]; spray, rate 280 g ai/ha",58.1%
same,% DR (doubling rate: No. plants with pollen and silk/No. of plants left * 100),"[2]; seedling soak, rate 5 μM",45.5%
same,No. plants alive,"[2]; seedling soak, rate 5 μM",16
same,No. plants dead,"[2]; seedling soak, rate 5 μM",48
same,No. plants with pollen & silks,"[2]; seedling soak, rate 5 μM",5
same,No. plants dead after TP,[2]; [8],0
same,No. plants alive,"[2]; seedling soak, rate 25 μM",1
same,No. plants dead,"[2]; seedling soak, rate 25 μM",63
same,No. plants dead after TP,[2]; [9],0
same,No. plants alive,"[2]; seedling soak, rate 125 μM",0
same,No. plants dead,"[2]; seedling soak, rate 125 μM",64
same,No. plants dead after TP,[2]; [10],0
"C#CC(C)(C)NC(=O)c1cc(Cl)cc(Cl)c1 [Pronamide, pronamide]",# plants dead after treatment,"[1]; spray, rate 35 g ai/ha",0
same,# plants w/ pollen and silk,"[1]; spray, rate 35 g ai/ha",5
same,% DR (doubling rate),"[1]; spray, rate 35 g ai/ha",27.8%
same,# plants dead after treatment,"[1]; spray, rate 140 g ai/ha",0
same,# plants w/ pollen and silk,"[1]; spray, rate 140 g ai/ha",3
same,% DR (doubling rate),"[1]; spray, rate 140 g ai/ha",16.7%
same,% DR (doubling rate: No. plants with pollen and silk/No. of plants left * 100),"[2]; seedling soak, rate 5 μM",44.5%
same,No. plants alive,"[2]; seedling soak, rate 5 μM",41
same,No. plants dead,"[2]; seedling soak, rate 5 μM",23
same,No. plants with pollen & silks,"[2]; seedling soak, rate 5 μM",12
same,No. plants dead after TP,[2]; [8],3
same,No. plants alive,"[2]; seedling soak, rate 25 μM",13
same,No. plants dead,"[2]; seedling soak, rate 25 μM",51
same,No. plants with pollen & silks,"[2]; seedling soak, rate 25 μM",2
same,No. plants dead after TP,[2]; [9],1
same,No. plants alive,"[2]; seedling soak, rate 125 μM",2
same,No. plants dead,"[2]; seedling soak, rate 125 μM",62
same,No. plants dead after TP,[2]; [10],0
"COc1ccc([C@@H]2CC=CC[C@H]2[N+](=O)[O-])c(OC)c1OC [Compound 1, 1,2,3-Trimethoxy-4-((1S,6R)-6-nitro-cyclohex-3-enyl)-benzene]",dermal toxicity,[3],No dermal toxicity was observed
same,LD50,[4],≥ 500 mg/kg
same,# plants dead after treatment,"[1]; maize, in vivo",0
same,# plants w/ pollen and silk,"[1]; spray, rate 70 g ai/ha",6
same,% DR (doubling rate),"[1]; spray, rate 70 g ai/ha",31.2%
same,# plants w/ pollen and silk,"[1]; spray, rate 280 g ai/ha",12
same,% DR (doubling rate),"[1]; spray, rate 280 g ai/ha",46.2%
same,% DH pollination success,[5]; 25 μM,90%
same,% haploid maize plants pollinated (doubling rate),[5]; 25 μM,67.79%
same,plants that had doubled haploid ears,"[5]; 25 μM, out of 40 pollinated maize haploid plants",36
same,% DH pollination success,[5]; 100 μM,62.5%
same,% haploid maize plants pollinated (doubling rate),[5]; 100 μM,51.06%
same,plants that had doubled haploid ears,"[5]; 100 μM, out of 24 pollinated haploid maize plants",15
same,Eye irritation: time to resolution of corneal and iridal effects,[6],≤ 48 h
same,Eye irritation: animals with corneal and iridal effects,[6]; at 24 hours,1 of 3 animals showed corneal and iridal effects
same,No. plants alive,"[2]; maize, in vivo, 5 μM",56
same,No. plants dead,"[2]; maize, in vivo, 5 μM",10
same,No. plants dead after TP,"[2]; maize, in vivo, 5 μM",2
same,No. plants alive,"[2]; maize, in vivo, 25 μM",46
same,No. plants dead,"[2]; maize, in vivo, 25 μM",20
same,No. plants dead after TP,"[2]; maize, in vivo, 25 μM",2
same,No. plants alive,"[2]; maize, in vivo, 125 μM",29
same,No. plants dead,"[2]; maize, in vivo, 125 μM",34
same,No. plants dead after TP,"[2]; maize, in vivo, 125 μM",2
same,mortality rate,"[2]; seedling soak, 5 μM (10/66*100)",15.1%
same,mortality rate,"[2]; seedling soak, 25 μM",30.3%
same,% DR (doubling rate: No. plants with pollen and silk/No. of plants left * 100),"[2]; seedling soak, rate 5 μM",53.3%
same,No. plants with pollen & silks,"[2]; seedling soak, rate 5 μM",24
same,% DR (doubling rate: No. plants with pollen and silk/No. of plants left * 100),"[2]; seedling soak, rate 5 μM, listed as compound 1",about 53%
same,% DR (doubling rate: No. plants with pollen and silk/No. of plants left * 100),"[2]; seedling soak, rate 25 μM",62.5%
same,No. plants with pollen & silks,"[2]; seedling soak, rate 25 μM",20
same,% DR (doubling rate: No. plants with pollen and silk/No. of plants left * 100),"[2]; seedling soak, rate 125 μM",76.5%
same,No. plants with pollen & silks,"[2]; seedling soak, rate 125 μM",13
"COc1cc2c(c(OC)c1OC)-c1ccc(OC)c(=O)cc1[C@@H](NC(C)=O)CC2 [Colchicine, colchicine]",% haploid maize plants pollinated (doubling rate),[5]; 0.06% colchicine,55.68%
same,plants that had doubled haploid ears,"[5]; 0.06% w/v colchicine, of about 49 haploid plants pollinated",about 38
same,mortality rate,"[2]; seedling soak, colchicine treatment at 0.06% w/v",41.5%
same,% DR (doubling rate: No. plants with pollen and silk/No. of plants left * 100),[2]; [11],53.3%
same,No. plants alive,[2]; [11],38
same,No. plants dead,[2]; [11],27
same,No. plants dead after TP,[2]; [11],0
same,No. plants with pollen & silks,[2]; [11],16
same,oral LD50 (rat),[7],5.89 mg/kg
